# Experiment: DPPH radical scavenging activity (antioxidant effect)
# Format: biochemical
# Conditions: 0.2 mM DPPH in methanol, 10 min at room temperature, absorbance 517 nm; compared with ascorbic acid (FIG. 1)
# Experimental: The 1,1-diphenyl-2-picrylhydrazyl (DPPH) radical scavenging activities of the phenolic acid derivative compounds prepared in Examples 1-5 were measured to evaluate the antioxidant activities of the compounds against free radicals. Ascorbic acid was used as a positive control.
# 1,1-Diphenyl-2-picrylhydrazyl (DPPH) radical was purchased from Sigma Chemical Co. (USA) and L-ascorbic acid purchased from Sigma (USA) were used for testing.
# 100 μl of a 0.2 mM DPPH solution in methanol and 100 μl of each of the compounds at different concentrations were prepared in a 96-well plate. After the reaction was allowed to proceed at room temperature for 10 min, the absorbance of each sample was measured at 517 nm.
structure (smiles),measurement,value
"CCOC(=O)[C@H](Cc1ccccc1)NC(=O)c1cc(O)c(O)c(O)c1 [Example 1, (S)-ethyl-3-phenyl-2-(3,4,5-trihydroxybenzamido)propanoate]",DPPH radical scavenging activity (antioxidant activity),high activity compared to the control ascorbic acid
